Reference: patent publication US8859574B2 (IRM LLC, priority 2008, dated 2014)

What follows are compounds tested against T1, IGF-1R Ba/F3 (Homo sapiens, UniProt P08069) (assay: Ba/F3 Cell Viability Inhibition Assay (IGF-1R Ba/F3)). Conditions: Tel-TK transformed Ba/F3 cells, 48 hours, Britelite luminescence.
T1 construct: fused on or other part: TEL- (or BCR-) IGF-1R in Ba/F3: the kinase part holds the site
T1 sequence (P08069 999-1274 limits assumed): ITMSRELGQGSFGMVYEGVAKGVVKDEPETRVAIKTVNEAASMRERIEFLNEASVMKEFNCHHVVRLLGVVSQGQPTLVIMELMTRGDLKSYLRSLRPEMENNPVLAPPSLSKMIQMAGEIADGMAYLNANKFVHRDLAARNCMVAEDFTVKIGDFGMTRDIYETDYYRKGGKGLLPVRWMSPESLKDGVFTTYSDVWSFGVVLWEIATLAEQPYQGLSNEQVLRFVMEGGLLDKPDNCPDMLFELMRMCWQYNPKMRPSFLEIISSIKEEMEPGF
Type: cell-based, murine
How it was run: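 IL-3-independent murine Ba/F3 cells transformed with a TEL/BCR-fused IGF-1R kinase were seeded at 3750 cells/well and exposed to serially diluted compound for 48 h at 37 °C. Viability was read by Britelite luminescence. IC50 is the concentration giving 50% of DMSO-control viability, from a logistic fit.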
`Cc1cc(Nc2nc(Nc3cc(C)c(C4CCN(CCO)CC4)cc3F)ncc2Cl)n[nH]1` [Compound 22, 2-(4-(4-(5-chloro-4-(5-methyl-1H-pyrazol-3-ylamino)pyrimidin-2-ylamino)-5-fluoro-2-methylphenyl)piperidin-1-yl)ethanol] showed an IC50 of 0.059 µM. Work on `CCOC(=O)N1CCC(c2cc(C)c(Nc3ncc(Cl)c(Nc4cc(C)[nH]n4)n3)cc2C)CC1` [Compound 162, ethyl 4-(4-(5-chloro-4-(5-methyl-1H-pyrazol-3-ylamino)pyrimidin-2-ylamino)-2,5-dimethylphenyl)piperidine-1-carboxylate] yielded an IC50 of 0.013 µM. `Cc1cc(Nc2ncc(Cl)c(Nc3cc(C(F)(F)F)[nH]n3)n2)c(F)cc1C1CCNCC1` [Compound 171, 5-chloro-N2-(2-fluoro-5-methyl-4-(piperidin-4-yl)phenyl)-N4-(5-(trifluoromethyl)-1H-pyrazol-3-yl)pyrimidine-2,4-diamine] gave an IC50 of 0.067 µM. For `CCc1cc(Nc2nc(Nc3cc(C)c(C4CCN(C)CC4)cc3F)ncc2Cl)n[nH]1` [Compound 271, 5-chloro-N4-(5-ethyl-1H-pyrazol-3-yl)-N2-(2-fluoro-5-methyl-4-(1-methylpiperidin-4-yl)phenyl)pyrimidine-2,4-diamine], the IC50 was 0.013 µM. `Cc1cc(Nc2nc(Nc3cc(C)c(C4CCN(C(=O)CCN(C)C)CC4)cc3C)ncc2Cl)n[nH]1` [Compound 239, 1-(4-(4-(5-chloro-4-(5-methyl-1H-pyrazol-3-ylamino)pyrimidin-2-ylamino)-2,5-dimethylphenyl)piperidin-1-yl)-3-(dimethylamino)propan-1-one] gave an IC50 of 0.073 µM. In the case of `Cc1cc(Nc2nc(Nc3cc(C)c(C4CCN(CCC#N)CC4)cc3F)ncc2Cl)n[nH]1` [Compound 200, 3-(4-(4-(5-chloro-4-(5-methyl-1H-pyrazol-3-ylamino)pyrimidin-2-ylamino)-5-fluoro-2-methylphenyl)piperidin-1-yl)propanenitrile], the IC50 is reported as 0.036 µM. Work on `Cc1cc(Nc2nc(Nc3cc(C)c(C4CCN(C)C(C)C4)cc3F)ncc2Cl)n[nH]1` (stereo not shown) [Compound 275, 5-chloro-N2-(4-(1,2-dimethylpiperidin-4-yl)-2-fluoro-5-methylphenyl)-N4-(5-methyl-1H-pyrazol-3-yl)pyrimidine-2,4-diamine] yielded an IC50 of 0.009 µM. For `CCc1cc(Nc2ncc(Cl)c(Nc3cc(C)[nH]n3)n2)c(C)cc1C1CCN(CC(N)=O)CC1` [Compound 261, 2-(4-(4-(5-chloro-4-(5-methyl-1H-pyrazol-3-ylamino)pyrimidin-2-ylamino)-2-ethyl-5-methylphenyl)piperidin-1-yl)acetamide], the IC50 was 0.027 µM. With `CNC(=O)CN1CCCC(c2cc(C)c(Nc3ncc(Cl)c(Nc4cc(C)[nH]n4)n3)cc2C)C1` (stereo not shown) [Compound 44, 2-(3-(4-(5-chloro-4-(5-methyl-1H-pyrazol-3-ylamino)pyrimidin-2-ylamino)-2,5-dimethylphenyl)piperidin-1-yl)-N-methylacetamide] the IC50 was 0.015 µM. Work on `COc1cc(Nc2ncc(Cl)c(Nc3cc(C)[nH]n3)n2)c(C)cc1C1CCN(C[C@@H](O)C(F)(F)F)CC1` [Compound 228, (R)-3-(4-(4-(5-chloro-4-(5-methyl-1H-pyrazol-3-ylamino)pyrimidin-2-ylamino)-2-methoxy-5-methylphenyl)piperidin-1-yl)-1,1,1-trifluoropropan-2-ol] yielded an IC50 of 0.023 µM.
